Results published in patent US20240018153A1, “BENZENESULFONAMIDE DERIVATIVES AND USES THEREOF” (2692372 ONTARIO, INC., priority 2020, published 2024).

What was measured:
BTK = BTK (Homo sapiens (Human), UniProt Q06187); assay: HTRF KinEASE-TK kinase assay, BTK; type: biochemical; conditions: 3 h preincubation; for remaining activity at 1 µM: 1 μM compound, read-out: % BTK Remaining activity vs DMSO (1 μM, 3 h); for remaining activity at 10 µM: 10 μM compound, read-out: % BTK Remaining activity vs DMSO (10 μM, 3 h)
How it was run: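 BTK activity in HTRF KinEASE-TK format, buffer containing 10 mM MnCl2, 5 mM MgCl2, 1 uM ATPγS and 1 mM TCEP; 45 min reaction with biotinylated substrate and ATP.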

JAK3 = JAK3 (Homo sapiens (Human), UniProt P52333); assay: HTRF KinEASE-TK kinase assay, JAK3; type: biochemical; conditions: for remaining activity at 1 µM: read-out: % JAK3 Remaining activity vs DMSO (1 μM, 3 h); for remaining activity at 10 µM: read-out: % JAK3 Remaining activity vs DMSO (10 μM, 3 h)
How it was run: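 Promega JAK3 at 0.21 nM was preincubated with inhibitor for 3 h at room temperature before biotinylated substrate and ATP were added. The reaction was stopped with EDTA detection buffer containing 31.25 nM SA-XL665 and Eu-antibody. After 60 min, the HTRF 665/620 nm emission ratio reflected substrate phosphorylation.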

FGFR4 = FGFR4 (Homo sapiens (Human), UniProt P22455); assay: HTRF KinEASE-TK kinase assay, FGFR4; type: biochemical; conditions: for remaining activity at 1 µM: read-out: % FGFR4 Remaining activity vs DMSO (1 μM, 3 h); for remaining activity at 10 µM: read-out: % FGFR4 Remaining activity vs DMSO (10 μM, 3 h)
How it was run: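 Promega FGFR4 at 0.333 ng/ul (5.12 nM) preincubated with or without inhibitor for 3 h at room temperature, then reaction started with biotinylated substrate and ATP. Stopped with EDTA detection buffer containing 31.25 nM SA-XL665 and Eu-antibody; after 60 min, HTRF 665/620 nm ratio read as substrate phosphorylation.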

BMX = BMX (Homo sapiens (Human), UniProt P51813); assay: HTRF KinEASE-TK kinase assay, BMX; type: biochemical; conditions: for remaining activity at 1 µM: 1 uM compound; for remaining activity at 1 µM / remaining activity at 10 µM: 3 h preincubation; for remaining activity at 10 µM: 10 uM compound
How it was run: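 Purchased BMX (0.333 ng/ul, 3.03 nM) was preincubated with or without inhibitor for 3 h at room temperature, then biotinylated substrate and ATP were added. Reactions were stopped with EDTA-containing buffer holding 31.25 nM SA-XL665 and Eu-antibody, and after 60 min phosphorylation was read as the HTRF 665/620 nm emission ratio.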

EGFR [1] = target: T1, EGFR (Homo sapiens (Human), UniProt P00533); assay: HTRF KinEASE-TK kinase assay, EGFR; type: biochemical; conditions: 3 h preincubation; for remaining activity at 1 µM: 1 μM compound, read-out: % EGFR Remaining activity vs DMSO (1 μM, 3 h); for remaining activity at 10 µM: 10 μM compound, read-out: % EGFR Remaining activity vs DMSO (10 μM, 3 h)
How it was run: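 HTRF KinEASE-TK format: EGFR pre-incubated with compound at 1 and 10 uM final (0.5% DMSO) in kinase buffer with 2 mM MnCl2, 5 mM MgCl2 and 1 mM TCEP.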

[2] = target: His-tagged BTK protein (SEQ ID NO: 1) (Homo sapiens (Human), UniProt Q06187); assay: Intact mass analysis (LC-MS/MS) of covalent modification; type: binding; conditions: His-tagged BTK (unmodified 32,650 Da) incubated with compound
Method: The covalent modification of the proteins with the compounds were evaluated using intact mass analysis by liquid chromatography-mass spectrometry instrument (LC-MS/MS).
The reaction solution (20 μL) was prepared in 96-well plate and contained the protein (2 μM), the compound (100 μM), HEPES buffer (20 mM, pH 8), 2% DMSO, 2% glycerol, and 150 mM NaCl. The reaction was allowed to proceed for 24 h at 25° C. The reaction solution (1 μL) was injected into the LC/MS/MS without any further sample preparation.
The LC-MS/MS instrument comprises of a Waters G2-XS quadrupole-time of flight (QTof) mass spectrometer and a Waters Acuity I-class Ultra-High Performance Liquid Chromatography (UPLC) system. The I-class UPLC system includes a binary solvent manager (BSM), and a Acquity sample manager (SM). The mobile phase consisted of: A) 0.1% (v/v) formic acid in MilliQ water; B) 0.1% (v/v) formic acid acetonitrile. Gradients were run over 5 min and proceeded as follows: A:B, 85:15, 0.0-0.7 min, 85:15→15:85, 0.7-1.5 min, 10:90, 1.5-4 min, 10:90→85:15, 4-4.5 min, 85:15, 4.5-5 min. The analytical column was a Waters BEH C4 column 1.7 μm (50×1 mm) column with pore sizes of […]. The TOF MS data was collected in positive ion mode (m/z of 400-2000 Da) using MassLynx software (Waters).
The spectral deconvolution was performed using UNIFI software (Waters). The added mass of the protein upon covalent modification to cysteine residues were specified. Multiple modification of up to 8 cysteine was allowed. All the adducts with signal intensities of <2% of the base peak were ignored. The % modification was calculated as the adduct signal intensity over the total intensities of the protein peaks and the adducts.

β-Tubulin = assay: K562 cell lysis and immunoassay, β-tubulin degradation; type: cell-based; design: key: Y: β-tubulin bound in cells and tubulin degradation occurred; conditions: K562 cells
Method: K562 cells (ATCC) were cultured in Iscove's Modified Dulbecco's Medium (IMDM) (Wisent) supplemented with 10% FBS and 1% penicillin/streptomycin. Cells were seeded in 6-well plates at 1.71×10^6 cells/well and incubated at 37° C., 5% CO2 for 16 hours. Cells were treated with compounds at the indicated concentrations or DMSO alone and incubated at 37° C., 5% CO2 for 24 hours. Cell suspensions were centrifugated at 1,400 RPM for 5 minutes at room temperature and supernatants were discarded. Cell pellets were resuspended with 1× RIPA buffer (Millipore) and incubated on ice for 15 minutes. Protein lysates were extracted by centrifugating at 20,000 RPM for 20 minutes at 4° C. Proteins were separated and total β-Tubulin levels were quantified by Simple Western Immunoassay (ProteinSimple) using the Protein Normalization Assay Module for Jess (ProteinSimple) according to the manufacturer's protocol, using a protein concentration of 0.05 μg/μl and an antibody targeting β-Tubulin (Abcam) diluted to 1:800. β-Tubulin levels were quantified relative to the Protein Normalization Reagent and subsequently normalized to the DMSO control.

EGFR [3] = target: T1, EGFR; assay: Time-dependent inhibition of EGFR (HTRF); type: biochemical; conditions: pre-incubation 0-60 min
Method: For the time-dependent inhibition experiments, the activity of EGFR kinase was monitored using a HTRF® KinEASE-TK kit from Cisbio (62TK0PEC) as described above. Six compounds showing higher potency during dose response analysis against EGFR, were further evaluated for their change in inhibitory potency over time. Ibrutinib was used as a positive control. The selected compounds were pre incubated with the kinase at 11 different concentrations, ranging from […] to 25 uM final compound concentrations. The pre incubation times were 0, 2, 5, 10, 15, 30, 45 and 60 min. After the preincubation, the reaction was initiated by adding biotinylated substrate and ATP and the reaction was allowed to proceed for 45 min. […] The reaction was terminated by adding 31.25 nM SA-XL665 and 100 fold diluted europium labelled antibody (Eu-Ab), diluted in 1× detection buffer that contained EDTA. After 60 min of incubation, the fluorescence emission was measured at 620 nm and 665 nm. The ratio of Em 665 nm to Em 620 nm was proportional to the amount of substrate phosphorylated by the kinase. Product formation vs pre-incubation time data were fitted to a one phase exponential decay equation using GraphPad Prism. The same product formation vs inhibitor concentration data were also fitted to a log(antagonist) vs. response—Variable slope equation in GraphPad Prism to provide IC50 values at different pre incubation times.

FGFR4, sequence (P22455 22-802): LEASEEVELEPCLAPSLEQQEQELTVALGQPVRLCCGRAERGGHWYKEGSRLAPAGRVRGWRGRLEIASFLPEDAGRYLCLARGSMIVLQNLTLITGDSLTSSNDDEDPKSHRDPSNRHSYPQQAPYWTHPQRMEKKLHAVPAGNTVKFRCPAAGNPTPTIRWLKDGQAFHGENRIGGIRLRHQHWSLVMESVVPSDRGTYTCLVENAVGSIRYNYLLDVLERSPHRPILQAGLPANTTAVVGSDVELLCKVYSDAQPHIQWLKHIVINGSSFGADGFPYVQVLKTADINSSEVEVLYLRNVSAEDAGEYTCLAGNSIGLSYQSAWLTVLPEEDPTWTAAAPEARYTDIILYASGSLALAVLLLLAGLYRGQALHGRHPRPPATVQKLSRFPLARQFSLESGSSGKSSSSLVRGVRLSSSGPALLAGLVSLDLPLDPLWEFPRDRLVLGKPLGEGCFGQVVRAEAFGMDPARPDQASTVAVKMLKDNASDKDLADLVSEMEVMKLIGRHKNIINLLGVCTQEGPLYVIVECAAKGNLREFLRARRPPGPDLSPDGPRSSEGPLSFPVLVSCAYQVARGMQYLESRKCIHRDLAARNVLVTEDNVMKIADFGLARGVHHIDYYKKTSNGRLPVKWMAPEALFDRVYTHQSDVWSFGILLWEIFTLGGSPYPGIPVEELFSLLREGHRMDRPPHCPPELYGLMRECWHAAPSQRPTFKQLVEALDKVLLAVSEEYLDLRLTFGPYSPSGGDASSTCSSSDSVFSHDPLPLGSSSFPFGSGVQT
JAK3, sequence (P52333 781-1124): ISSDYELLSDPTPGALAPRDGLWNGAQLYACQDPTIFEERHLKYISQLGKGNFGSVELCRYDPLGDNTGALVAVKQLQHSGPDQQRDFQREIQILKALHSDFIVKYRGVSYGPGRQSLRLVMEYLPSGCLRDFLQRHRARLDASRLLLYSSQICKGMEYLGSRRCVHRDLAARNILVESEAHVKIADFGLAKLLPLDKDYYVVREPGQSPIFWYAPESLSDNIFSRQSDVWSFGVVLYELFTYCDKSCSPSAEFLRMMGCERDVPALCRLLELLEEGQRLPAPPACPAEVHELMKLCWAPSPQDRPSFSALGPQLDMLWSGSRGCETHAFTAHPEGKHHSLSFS
T1 sequence (P00533 25-1210): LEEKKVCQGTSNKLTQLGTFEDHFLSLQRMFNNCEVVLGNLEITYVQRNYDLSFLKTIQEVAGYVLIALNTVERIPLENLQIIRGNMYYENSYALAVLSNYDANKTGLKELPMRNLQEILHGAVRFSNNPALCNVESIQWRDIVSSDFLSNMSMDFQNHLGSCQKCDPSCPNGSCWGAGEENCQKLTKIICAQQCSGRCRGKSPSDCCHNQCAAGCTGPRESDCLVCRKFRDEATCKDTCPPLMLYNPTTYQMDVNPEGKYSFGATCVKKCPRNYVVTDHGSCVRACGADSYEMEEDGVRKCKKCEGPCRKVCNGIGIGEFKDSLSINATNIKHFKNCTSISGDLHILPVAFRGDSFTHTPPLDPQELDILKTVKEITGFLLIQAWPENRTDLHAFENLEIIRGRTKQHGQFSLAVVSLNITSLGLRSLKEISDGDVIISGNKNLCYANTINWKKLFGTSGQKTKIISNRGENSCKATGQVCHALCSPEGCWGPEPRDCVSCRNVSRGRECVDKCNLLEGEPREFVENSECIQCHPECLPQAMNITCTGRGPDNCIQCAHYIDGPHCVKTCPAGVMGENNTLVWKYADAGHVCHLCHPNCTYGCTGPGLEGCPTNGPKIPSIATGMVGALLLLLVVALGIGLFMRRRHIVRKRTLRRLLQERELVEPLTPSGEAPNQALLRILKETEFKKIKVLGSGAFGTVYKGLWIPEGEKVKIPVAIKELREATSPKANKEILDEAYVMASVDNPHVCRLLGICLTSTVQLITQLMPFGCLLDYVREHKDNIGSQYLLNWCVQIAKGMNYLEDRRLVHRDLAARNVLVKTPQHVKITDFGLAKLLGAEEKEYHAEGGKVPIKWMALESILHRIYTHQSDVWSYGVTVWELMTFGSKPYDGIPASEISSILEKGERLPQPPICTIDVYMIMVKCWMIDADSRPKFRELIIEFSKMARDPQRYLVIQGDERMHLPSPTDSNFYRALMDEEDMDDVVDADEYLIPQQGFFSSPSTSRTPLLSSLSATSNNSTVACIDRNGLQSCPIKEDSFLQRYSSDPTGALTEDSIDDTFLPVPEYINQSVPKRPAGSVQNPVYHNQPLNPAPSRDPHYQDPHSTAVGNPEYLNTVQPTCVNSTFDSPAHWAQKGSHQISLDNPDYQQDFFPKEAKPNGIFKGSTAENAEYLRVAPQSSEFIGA
BMX, sequence (P51813 whole entry): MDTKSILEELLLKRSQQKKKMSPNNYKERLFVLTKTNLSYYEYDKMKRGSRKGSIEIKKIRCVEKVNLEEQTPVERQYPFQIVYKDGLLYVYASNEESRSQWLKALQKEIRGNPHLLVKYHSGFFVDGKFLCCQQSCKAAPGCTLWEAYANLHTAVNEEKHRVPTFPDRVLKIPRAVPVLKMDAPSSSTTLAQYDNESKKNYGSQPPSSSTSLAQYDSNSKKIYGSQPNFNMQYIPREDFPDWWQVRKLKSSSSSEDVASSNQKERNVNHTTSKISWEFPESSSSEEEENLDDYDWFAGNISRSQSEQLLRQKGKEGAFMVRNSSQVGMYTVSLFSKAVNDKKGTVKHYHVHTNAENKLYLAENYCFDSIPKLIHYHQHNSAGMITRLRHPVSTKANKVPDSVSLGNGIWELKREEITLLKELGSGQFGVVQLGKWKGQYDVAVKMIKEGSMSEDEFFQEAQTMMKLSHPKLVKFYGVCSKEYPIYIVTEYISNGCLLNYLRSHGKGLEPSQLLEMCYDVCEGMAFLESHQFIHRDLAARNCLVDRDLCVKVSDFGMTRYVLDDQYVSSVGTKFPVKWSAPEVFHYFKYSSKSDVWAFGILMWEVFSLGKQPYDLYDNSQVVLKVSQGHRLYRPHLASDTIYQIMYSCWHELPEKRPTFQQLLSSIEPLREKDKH
BTK, sequence (Q06187 whole entry): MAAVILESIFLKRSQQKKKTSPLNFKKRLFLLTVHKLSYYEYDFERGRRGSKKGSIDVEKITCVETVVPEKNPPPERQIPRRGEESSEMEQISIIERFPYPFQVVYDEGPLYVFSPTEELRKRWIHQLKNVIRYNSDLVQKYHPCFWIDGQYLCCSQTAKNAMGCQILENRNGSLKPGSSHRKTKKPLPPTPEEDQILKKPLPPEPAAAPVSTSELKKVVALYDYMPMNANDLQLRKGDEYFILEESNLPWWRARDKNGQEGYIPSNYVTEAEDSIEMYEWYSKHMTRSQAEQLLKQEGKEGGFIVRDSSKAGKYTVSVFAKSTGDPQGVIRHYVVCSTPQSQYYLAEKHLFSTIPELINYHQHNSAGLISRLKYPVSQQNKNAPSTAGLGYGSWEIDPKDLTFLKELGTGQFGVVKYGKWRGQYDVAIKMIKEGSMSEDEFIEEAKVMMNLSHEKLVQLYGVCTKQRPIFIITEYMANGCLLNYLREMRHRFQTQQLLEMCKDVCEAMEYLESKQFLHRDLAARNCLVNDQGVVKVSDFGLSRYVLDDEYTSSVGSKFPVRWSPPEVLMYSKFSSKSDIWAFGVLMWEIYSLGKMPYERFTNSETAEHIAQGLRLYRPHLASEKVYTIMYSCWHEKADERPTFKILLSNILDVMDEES
His-tagged BTK protein (SEQ ID NO: 1), sequence (Q06187 other isoform, or with tags, fused parts or gaps): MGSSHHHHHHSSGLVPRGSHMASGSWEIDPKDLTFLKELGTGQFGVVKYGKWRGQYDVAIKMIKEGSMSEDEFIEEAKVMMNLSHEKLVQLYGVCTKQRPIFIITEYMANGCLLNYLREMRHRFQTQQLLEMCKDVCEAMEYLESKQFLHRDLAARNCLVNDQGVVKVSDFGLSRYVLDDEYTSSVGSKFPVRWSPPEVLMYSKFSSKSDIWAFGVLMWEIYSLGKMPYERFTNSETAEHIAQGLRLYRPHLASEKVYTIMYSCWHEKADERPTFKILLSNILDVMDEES

COCCOc1ccc(Nc2ncc(F)c(NCCCNS(=O)(=O)c3c(F)c(F)c(F)c(F)c3CF)n2)cc1 [Compound I-56, 2,3,4,5-tetrafluoro-N-(3-((5-fluoro-2-((4-(2-methoxyethoxy)phenyl)amino)pyrimidin-4-yl)amino)propyl)-6-(fluoromethyl)benzenesulfonamide]
remaining activity at 1 µM (BTK): < 50% | remaining activity at 10 µM (BTK): < 50% | remaining activity at 1 µM (JAK3): < 50% | remaining activity at 10 µM (JAK3): < 50% | remaining activity at 1 µM (FGFR4): 50 to 90% | remaining activity at 10 µM (FGFR4): < 50% | remaining activity at 1 µM (BMX): < 50% | remaining activity at 10 µM (BMX): < 50% | IC50 (BMX; dose response): < 1000 nM | remaining activity at 1 µM (EGFR [1]): > 90% | remaining activity at 10 µM (EGFR [1]): > 90% | covalent adduct mass (intact mass analysis, modification by one molecule) [2]: 33,209 Da

COc1ccc(NS(=O)(=O)c2c(F)c(F)c(F)c(F)c2C(F)(F)F)cc1F [Compound I-6, 2,3,4,5-tetrafluoro-N-(3-fluoro-4-methoxyphenyl)-6-(trifluoromethyl) benzenesulfonamide]
Beta-tubulin - K562 24 hrs (1 μM) (β-Tubulin): Y | Beta-tubulin K562, compound concentration, 24 hrs (β-Tubulin; compound concentration 10): Y

COc1ccc(CS(=O)(=O)c2c(F)c(F)c(F)c(F)c2OCc2ccccc2)cc1F [Compound I-16, 1-(benzyloxy)-2,3,4,5-tetrafluoro-6-((3-fluoro-4-methoxybenzyl)sulfonyl)benzene]
Beta-tubulin K562, compound concentration, 24 hrs (β-Tubulin; compound concentration 10): Y

COc1ccc(N(C)S(=O)(=O)c2c(F)c(F)c(F)c(F)c2C(F)(F)F)cc1F [Compound I-7, 2,3,4,5-tetrafluoro-N-(3-fluoro-4-methoxyphenyl)-N-methyl-6-(trifluoromethyl) benzenesulfonamide]
Beta-tubulin - K562 24 hrs (1 μM) (β-Tubulin): Y | Beta-tubulin K562, compound concentration, 24 hrs (β-Tubulin; compound concentration 0.5): Y

COCCOc1ccc(Nc2ncc(F)c(NCCCNS(=O)(=O)c3c(F)c(F)c(F)c(F)c3OC(F)F)n2)cc1 [Compound I-55, 2-(difluoromethoxy)-3,4,5,6-tetrafluoro-N-(3-((5-fluoro-2-((4-(2-methoxyethoxy)phenyl)amino)pyrimidin-4-yl)amino)propyl)benzenesulfonamide]
remaining activity at 1 µM (BTK): < 50% | remaining activity at 10 µM (BTK): < 50% | IC50 (JAK3; dose response): < 1000 nM | remaining activity at 1 µM (JAK3): < 50% | remaining activity at 10 µM (JAK3): < 50% | remaining activity at 1 µM (FGFR4): 50 to 90% | remaining activity at 10 µM (FGFR4): < 50% | remaining activity at 1 µM (BMX): < 50% | remaining activity at 10 µM (BMX): < 50% | remaining activity at 1 µM (EGFR [1]): > 90% | remaining activity at 10 µM (EGFR [1]): > 90% | covalent adduct mass (intact mass analysis, modification by one molecule) [2]: 33,243 Da

COc1ccc(CS(=O)(=O)c2c(F)c(F)c(F)c(F)c2OC(F)F)cc1F [Compound I-15, 1-(difluoromethoxy)-2,3,4,5-tetrafluoro-6-((3-fluoro-4-methoxybenzyl)sulfonyl) benzene]
Beta-tubulin K562, compound concentration, 24 hrs (β-Tubulin; compound concentration 10): Y

COc1ccc(OCc2c(F)c(F)c(F)c(F)c2S(C)(=O)=O)cc1F [Compound I-17, 1,2,3,4-tetrafluoro-5-((3-fluoro-4-methoxyphenoxy)methyl)-6-(methylsulfonyl) benzene]
Beta-tubulin K562, compound concentration, 24 hrs (β-Tubulin; compound concentration 5): Y

COc1ccc(/N=C/c2c(F)c(F)c(F)c(F)c2S(C)(=O)=O)cc1F [Compound I-11, (E)-N-(3-fluoro-4-methoxyphenyl)-1-(2,3,4,5-tetrafluoro-6-(methylsulfonyl)phenyl) methanimine]
Beta-tubulin K562, compound concentration, 24 hrs (β-Tubulin; compound concentration 0.5): Y

COc1ccc(NC(=O)c2c(F)c(F)c(F)c(F)c2S(=O)(=O)N(C)C)cc1F [Compound I-9, 2-(N,N-dimethylsulfamoyl)-3,4,5,6-tetrafluoro-N-(3-fluoro-4-methoxyphenyl) benzamide]
Beta-tubulin K562, compound concentration, 24 hrs (β-Tubulin; compound concentration 10): Y

C=CC(=O)N1CCC[C@@H](n2nc(-c3ccc(Oc4ccccc4)cc3)c3c(N)ncnc32)C1 [ibrutinib, reference compound]
Time-dependent inhibition of EGFR: product formation versus pre-incubation time (EGFR [3]; mono-exponential decay fit): concentration-dependent first order loss of enzyme activity | Time-dependent inhibition of EGFR: IC50 values versus pre-incubation time (EGFR [3]): decrease as pre-incubation times increase
